# Reference: patent US12344606B2, “Next-generation modulators of stimulator of interferon genes (STING)” (RYVU THERAPEUTICS S.A., priority 2019, dated 2025)
# Experiments:
# human STING = human STING (Homo sapiens, UniProt Q86WV6); experiment: Fluorescence Thermal Shift assay (hSTING FTS binding assay); conditions: STING 0.1 mg/ml, 20 min preincubation, SyproOrange
# Outline: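 STING protein (final 0.1 mg/ml) preincubated 20 min with compound in 50 mM Hepes, 150 mM NaCl, pH 7.5, then SyproOrange dye added. Thermal unfolding monitored by fluorescence from 25 to 99° C. at a continuous ramp of 0.033° C./s.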
# [1] = system: interferon regulatory factor (IRF) pathway in THP-1 dual cells; experiment: THP-1 Dual reporter assay, IRF pathway (luciferase); format: cell-based; conditions: Homo sapiens, THP1-Dual; 18 h stimulation, luminescence
# Outline: (§1)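 THP-1 dual reporter cells stimulated 18 h with STING agonist; culture medium then sampled. IRF activity read as ISG54/ISRE-driven luciferase luminescence; NF-κB activity read as SEAP absorbance at 630 nm (or 655 nm) after 2 h (or 1 h) at 37° C with detection medium.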
# [2] = system: NF-κB pathway in THP-1 dual cells; experiment: THP-1 Dual reporter assay, NF-κB pathway (SEAP); format: cell-based; conditions: Homo sapiens, THP1-Dual; 18 h stimulation, absorbance; read-out: THP1 Dual EC50 (μM) NFkB
# Outline: as §1
# [3] = system: CT26 murine colon carcinoma allografts; experiment: In vivo anti-tumor efficacy in CT26 allografts; parameters: species or system female Balb/C mice; conditions: for efficacy of dose: once every fifth day x3, 10% Captisol in PBS
# Procedure: The efficacy of Example 1 was evaluated in established CT26 murine colon carcinoma allografts in female Balb/C mice. Example 1 was formulated in 10% Captisol in PBS and administered intravenously, once every fifth day on three occasions. The solution was prepared fresh prior to each administration. […] In both treatment groups tumor growth delay was observed when compared to the control group. By the end of the study, on day 42, there were 3 and 6 complete responses recorded for mice treated at 2 and 3 mg/kg E5Dx3, respectively.
# CT26 cells = experiment: CT26 re-challenge study of mice with complete responses; format: in vivo, Balb/C mice
# Procedure: Mice with complete responses were subjected to a re-challenge study. CT26 cells were injected into the flank opposite to an original site of inoculation. Naïve mice were included into the re-challenge study as a control of the tumor growth kinetics.
# Sequence of human STING (Q86WV6 whole entry H232R): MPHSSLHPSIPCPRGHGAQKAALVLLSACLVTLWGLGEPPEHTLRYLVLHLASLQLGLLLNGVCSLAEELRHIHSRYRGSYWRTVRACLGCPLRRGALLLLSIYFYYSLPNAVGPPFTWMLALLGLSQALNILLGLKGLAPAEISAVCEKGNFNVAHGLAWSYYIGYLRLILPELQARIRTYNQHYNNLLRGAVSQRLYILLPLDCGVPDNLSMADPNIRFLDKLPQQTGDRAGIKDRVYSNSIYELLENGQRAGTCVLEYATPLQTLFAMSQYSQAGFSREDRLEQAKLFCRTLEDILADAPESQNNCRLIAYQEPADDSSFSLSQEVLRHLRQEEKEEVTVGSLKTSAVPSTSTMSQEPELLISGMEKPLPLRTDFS
hSTING FTS binding assay (ΔT C.°) (human STING),EC50 [1] [µM],EC50 [2] [µM],SMILES,"TGI (tumor growth inhibition) ([3]; 2 mg/kg E5Dx3, 11th day) [%]","complete responses (number of mice) ([3]; 2 mg/kg E5Dx3, day 42)",efficacy of dose ([3]; 2 mg/kg i.v.),"TGI (tumor growth inhibition) ([3]; 3 mg/kg E5Dx3, 11th day) [%]","complete responses (number of mice) ([3]; 3 mg/kg E5Dx3, day 42)",efficacy of dose ([3]; 3 mg/kg i.v.),"mice that developed tumors on re-challenge (CT26 cells; six mice with complete responses dosed previously at 3 mg/kg, substantial delay in tumor growth)",mice that developed tumors on re-challenge (CT26 cells; three mice with complete responses dosed previously at 2 mg/kg)
++ (ΔTm>10° C.),≤ 1,≤ 1,"COc1cc(CN(Cc2cn(C)c3ccccc3c2=O)[C@H]2CCCN(c3cccnc3)C2)ccn1 [Example 1, 3-({[(2-methoxypyridin-4-yl)methyl][(3S)-1-(pyridin-3-yl)piperidin-3-yl]amino}methyl)-1-methyl-1,4-dihydroquinolin-4-one]",52,3,moderately efficacious dose,80,6,full efficacious dose,two of them developed a tumor,none of them developed tumors
+ (ΔTm<10° C.),≥ 10,≥ 10,"Cn1cc(CN(Cc2ccns2)[C@H]2CCCN(c3cccnc3)C2)c(=O)c2ccccc21 [Example 55, 1-methyl-3-({[(3S)-1-(pyridin-3-yl)piperidin-3-yl][(1,2-thiazol-5-yl)methyl]amino}methyl)-1,4-dihydroquinolin-4-one]",,,,,,,,
+ (ΔTm<10° C.),≤ 1,1 to 10,"Cc1ccc(N2CCC[C@H](N(Cc3ccnc(C)c3)Cc3cn(C4CC4)c4cc(Cl)ncc4c3=O)C2)cn1 [Example 56, 7-chloro-1-cyclopropyl-3-({[(3S)-1-(6-methylpyridin-3-yl)piperidin-3-yl][(2-methylpyridin-4-yl)methyl]amino}methyl)-1,4-dihydro-1,6-naphthyridin-4-one]",,,,,,,,
++ (ΔTm>10° C.),≤ 1,≤ 1,"Cc1ccc(N2CCC[C@H](N(Cc3ccnc(C)c3)Cc3c[nH]c4ccccc4c3=O)C2)cn1 [Example 58, 3-({[(3S)-1-(6-methylpyridin-3-yl)piperidin-3-yl][(2-methylpyridin-4-yl)methyl]amino}methyl)-1,4-dihydroquinolin-4-one]",,,,,,,,
++ (ΔTm>10° C.),≤ 1,1 to 10,"Cc1ccc(N2CCC[C@H](N(Cc3ccnc(C)c3)Cc3cn(C4CC4)c4cc(O)c(F)cc4c3=O)C2)cn1 [Example 59, 1-cyclopropyl-6-fluoro-7-hydroxy-3-({[(3S)-1-(6-methylpyridin-3-yl)piperidin-3-yl][(2-methylpyridin-4-yl)methyl]amino}methyl)-1,4-dihydroquinolin-4-one]",,,,,,,,
